Assays:
[1] = tested on: IgM in Lyme Disease patient sera; experiment: MSD-ECL assay with Biotin-BBGL-1 / Biotin-BBGL-2 coated streptavidin plates, anti-IgM detection; assay type: binding, human; details: biotinylated antigen coated at 1 ug/mL; for IgM titer, EU: NC= 189.75
Method: (§1) A Meso Scale Discovery Electrochemiluminescence (MSD-ECL) assay was developed using Biotin-BBGL-1 and Biotin-BBGL-2 to measure antibody titers in Lyme Disease patient samples. The assay involved first blocking MSD streptavidin gold plate with 4% BGG (bovine gamma globulin in PBS), washing the plates with PBS and the coating Biotin-BBGL-1 and Biotin-BBGL-2 at concentration of 4 ug/mL (diluted in 4% BGG) for coating for IgG side of plate and at concentration of 1 ug/mL (diluted in 4% BGG) for coating for IgM side of plate. Serum samples (diluted 1:5) were then added to each well, incubated, and washed.
(§2) Detection reagents (Sulfo tag anti-lgG Fc or anti-IgM) were then added, incubated, and washed, followed by reading the plates on a Sector Imager (Meso Scale Diagnostic, Rockville, MD USA).

[2] = tested on: IgG in Lyme Disease patient sera; experiment: MSD-ECL assay with Biotin-BBGL-1 / Biotin-BBGL-2 coated streptavidin plates, anti-IgG Fc detection; assay type: binding, human; details: biotinylated antigen coated at 4 ug/mL; for IgG titer, EU: NC= 166.75
Method: as §1, §2

Borrelia burgdorferi = experiment: In vitro neutralization of Borrelia burgdorferi by Day 30 serum samples from immunized mice; assay type: in vivo; details: Day 30 sera of C3H/HeJ mice, n=6 per group; dosing at day 1 (77 µg/mouse per immunization, 10 µg QS-21/mouse)
Method: A pilot study in mice was conducted to determine the safety and in vitro efficacy of the BBGL-1 and BBGL-2 liposome vaccines in the absence or presence of the adjuvant QS-21 (Desert King International, San Diego, CA USA). Eighty-four (42 male, 42 female) C3H/HeJ mice (The Jackson Laboratory, Bar Harbor, ME USA), at approximately 7 weeks were used in the study, which is outlined in Table 17a and 17b.
7 Group of Mice (6 male and 6 female in each group) were given either 1) adjuvant alone, 2) Immunization A, 3) Adjuvant + Immunization A, 4) Immunization B, 5) Adjuvant + Immunization B, 6) Immunization A + Immunization B, or 7) Adjuvant + Immunization A + Immunization B
Immunization A and Immunization B were administered at 77 µg/mouse doses at day 1 and Day 30. Groups receiving adjuvant received 10 µg QS-21/mouse at Day 1 and Day 30.
Whole blood was collected into serum separator tubes at baseline and days 7, 15, 30, 45, and 60. Blood was allowed to clot and centrifuged at 1500xg and 10° C. for 15 minutes. Serum was aliquoted and stored at -30° C.
Serum aliquots were evaluated after 30 days, for neutralizing antibodies against Borrelia burgdorferi, B. mayonii, B. afzelii, and B. garinii using laboratory developed assays.
In vitro neutralization of Borrelia burgdorferi from Day 30 assessed with half of the mouse serum samples (n=6 per group) are shown in FIG. 7a.

CCCCCCCCCCCCCCCC(=O)OC[C@H]1O[C@@H](O[C@H]2CC[C@@]3(C)C(=CC[C@H]4[C@@H]5CC[C@H]([C@H](C)CCCC(C)C)[C@@]5(C)CC[C@@H]43)C2)[C@H](O)[C@@H](O)[C@H]1O [BBGL1, cholesteryl 6-O-palmitoyl-β-D-galactopyranoside]
IgM titer, Fold/Baseline ([1]; patient L1 serum diluted 1:5): 21 Fold/Baseline | IgM titer, EU ([1]; patient L1 serum diluted 1:5): 4055.50 EU | IgM titer, Fold/Baseline ([1]; patient L2 serum diluted 1:5): 2 Fold/Baseline | IgM titer, EU ([1]; patient L2 serum diluted 1:5): 390.00 EU | IgM titer, Fold/Baseline ([1]; patient L3 serum diluted 1:5): 7 Fold/Baseline | IgM titer, EU ([1]; patient L3 serum diluted 1:5): 1338.00 EU | IgG titer, Fold/Baseline ([2]; patient L1 serum diluted 1:5): 1.3 Fold/Baseline | IgG titer, EU ([2]; patient L1 serum diluted 1:5): 218.50 EU | IgG titer, Fold/Baseline ([2]; patient L2 serum diluted 1:5): 0.9 Fold/Baseline | IgG titer, EU ([2]; patient L2 serum diluted 1:5): 143.50 EU | IgG titer, Fold/Baseline ([2]; patient L3 serum diluted 1:5): 1.0 Fold/Baseline | IgG titer, EU ([2]; patient L3 serum diluted 1:5): 166.00 EU

QS-21
neutralization activity (Borrelia burgdorferi): > 15%

CCCCCCCC/C=C\CCCCCCCC(=O)OC[C@H](CO[C@H]1O[C@H](CO)[C@H](O)[C@H](O)[C@H]1O)OC(=O)CCCCCCCCCCCCCCC [BBGL2, 1-oleoyl-2-palmitoyl-3-(α-D-galactosyl)-sn-glycerol]
IgM titer, Fold/Baseline ([1]; patient L1 serum diluted 1:5): 18 Fold/Baseline | IgM titer, EU ([1]; patient L1 serum diluted 1:5): 3458.00 EU | IgM titer, Fold/Baseline ([1]; patient L2 serum diluted 1:5): 2 Fold/Baseline | IgM titer, EU ([1]; patient L2 serum diluted 1:5): 344.50 EU | IgM titer, Fold/Baseline ([1]; patient L3 serum diluted 1:5): 6 Fold/Baseline | IgM titer, EU ([1]; patient L3 serum diluted 1:5): 1229.50 EU | IgG titer, Fold/Baseline ([2]; patient L1 serum diluted 1:5): 16 Fold/Baseline | IgG titer, EU ([2]; patient L1 serum diluted 1:5): 2720.00 EU | IgG titer, Fold/Baseline ([2]; patient L2 serum diluted 1:5): 4 Fold/Baseline | IgG titer, EU ([2]; patient L2 serum diluted 1:5): 619.50 EU | IgG titer, Fold/Baseline ([2]; patient L3 serum diluted 1:5): 1.1 Fold/Baseline | IgG titer, EU ([2]; patient L3 serum diluted 1:5): 178.00 EU

Source: patent US20230338495A1, “Vaccine Compositions and Antibodies For Lyme Disease” (priority 2020, published 2023)
